# Test results reported in ChEMBL document CHEMBL1137205, “Rational approaches to discovery of orally active and brain-penetrable quinazolinone inhibitors of poly(ADP-ribose)polymerase” (J Med Chem, 2004).
# Assays:
# [1] = biological target: Poly [ADP-ribose] polymerase 1 (Homo sapiens, UniProt P09874); test: In vitro inhibitory concentration against human recombinant Poly (ADP-ribose) polymerase 1
# [2] = Concentration in plasma was measured at 2 hrs in mice following po administration of 32 mg/kg; assay type: ADME, organism-based; set-up: dose 32 mg/kg, route oral; conditions: mouse
# [3] = Concentration in plasma was measured at 0.5 hrs in mice following po administration of 32 mg/kg; assay type: ADME, organism-based; set-up: dose 32 mg/kg, route oral; conditions: mouse
# [4] = Concentration in brain tissue was measured at 2 hrs in mice following po administration of 32 mg/kg; assay type: ADME, organism-based; set-up: dose 32 mg/kg, route oral; conditions: mouse
# [5] = Concentration in brain tissue was measured at 0.5 hrs in mice following po administration of 32 mg/kg; assay type: ADME, organism-based; set-up: dose 32 mg/kg, route oral; conditions: mouse
# [6] = Concentration in plasma was measured at 0.5 hrs in mice following ip administration of 32 mg/kg; assay type: ADME, organism-based; set-up: dose 32 mg/kg, route intraperitoneal; conditions: mouse
# [7] = Concentration in brain tissue was measured at 0.5 hrs in mice following ip administration of 32 mg/kg; assay type: ADME, organism-based; set-up: dose 32 mg/kg, route intraperitoneal; conditions: mouse
# [8] = Ratio of brain tissue concentration to that of plasma concentration; assay type: ADME; conditions: mouse; for Kp: brain / plasma
# [9] = Cmax value in mouse after po administration of 10 mg/kg; assay type: ADME, organism-based; set-up: dose 10 mg/kg, route oral; conditions: in vivo
# [10] = Clearance of compound in rat after iv administration of 10 mg/kg; assay type: ADME, organism-based; set-up: dose 10 mg/kg, route intravenous; conditions: in vivo
# [11] = Clearance of compound in dog after iv administration of 1.0 mg/kg; assay type: ADME, organism-based, Canis lupus familiaris; set-up: dose 1 mg/kg, route intravenous; conditions: in vivo
# [12] = Clearance in dog liver microsomes when incubated at 37 degree Celsius in the presence of NADPH-generating system
# [13] = Clearance in rat liver microsomes when incubated at 37 degree Celsius in the presence of NADPH-generating system
# [14] = Bioavailability in rat after iv administration of 10 mg/kg; assay type: ADME, organism-based; conditions: in vivo, read-out: Bioavailabiility
# [15] = Bioavailability in dog after iv administration of 1.0 mg/kg; assay type: ADME, organism-based, Canis lupus familiaris; conditions: in vivo, read-out: Bioavailabiility
# [16] = Cmax value in rat after po administration of 10 mg/kg; assay type: ADME, organism-based; set-up: dose 10 mg/kg, route oral; conditions: in vivo
# [17] = Cmax value in dog after po administration of 1.0 mg/kg; assay type: ADME, organism-based, Canis lupus familiaris; set-up: dose 1 mg/kg, route oral; conditions: in vivo
# [18] = Half-life in rat after iv administration of 10 mg/kg; assay type: ADME, organism-based; set-up: dose 10 mg/kg, route intravenous; conditions: in vivo
# [19] = Half-life in dog after iv administration of 1.0 mg/kg; assay type: ADME, organism-based, Canis lupus familiaris; set-up: dose 1 mg/kg, route intravenous; conditions: in vivo
# [20] = Clearance in human liver microsomes when incubated at 37 degree Celsius in the presence of NADPH-generating system
# [21] = Clearance in mouse liver microsomes when incubated at 37 degree Celsius in the presence of NADPH-generating system
# [22] = AUC value in rat after po administration of 10 mg/kg; assay type: ADME, organism-based, Plasma; set-up: dose 10 mg/kg, route oral; conditions: in vivo
# [23] = AUC value in dog after po administration of 1.0 mg/kg; assay type: ADME, organism-based, Canis lupus familiaris, Plasma; set-up: dose 1 mg/kg, route oral; conditions: in vivo
# Poly [ADP-ribose] polymerase 1, sequence (P09874 whole entry): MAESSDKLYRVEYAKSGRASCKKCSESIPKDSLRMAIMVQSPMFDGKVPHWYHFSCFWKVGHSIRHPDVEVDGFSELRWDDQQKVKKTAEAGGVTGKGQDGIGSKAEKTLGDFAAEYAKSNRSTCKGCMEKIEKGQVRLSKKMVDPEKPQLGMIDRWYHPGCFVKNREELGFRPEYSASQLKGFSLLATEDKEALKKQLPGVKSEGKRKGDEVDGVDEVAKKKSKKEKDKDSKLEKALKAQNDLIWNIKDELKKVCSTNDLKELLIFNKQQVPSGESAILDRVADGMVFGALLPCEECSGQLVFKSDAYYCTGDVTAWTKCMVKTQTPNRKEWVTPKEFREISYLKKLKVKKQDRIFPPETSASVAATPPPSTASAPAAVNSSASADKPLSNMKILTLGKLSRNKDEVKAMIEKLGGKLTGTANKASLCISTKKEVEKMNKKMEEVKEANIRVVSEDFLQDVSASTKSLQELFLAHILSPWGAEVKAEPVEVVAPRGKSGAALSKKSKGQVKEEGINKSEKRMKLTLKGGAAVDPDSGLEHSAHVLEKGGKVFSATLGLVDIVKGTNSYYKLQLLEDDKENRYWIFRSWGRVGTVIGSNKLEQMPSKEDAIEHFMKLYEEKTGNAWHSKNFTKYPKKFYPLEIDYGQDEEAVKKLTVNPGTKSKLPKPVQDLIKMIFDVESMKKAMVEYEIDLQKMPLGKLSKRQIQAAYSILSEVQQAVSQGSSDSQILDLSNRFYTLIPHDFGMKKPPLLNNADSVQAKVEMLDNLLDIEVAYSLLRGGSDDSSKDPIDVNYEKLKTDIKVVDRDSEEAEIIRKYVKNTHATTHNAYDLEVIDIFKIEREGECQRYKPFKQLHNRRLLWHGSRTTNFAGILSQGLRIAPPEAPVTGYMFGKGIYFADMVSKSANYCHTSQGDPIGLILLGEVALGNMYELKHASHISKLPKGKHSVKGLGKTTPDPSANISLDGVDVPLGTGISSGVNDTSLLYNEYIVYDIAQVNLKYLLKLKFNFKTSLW
SMILES,IC50 [1] [nM],concentration at 2 h [2] [ng/mL],concentration at 0.5 h [3] [ng/mL],concentration at 2 h [4] [ng/g],concentration at 0.5 h [5] [ng/g],other results
Oc1nc(CCCN2CC=C(c3ccccc3F)CC2)nc2ccccc12,37,–,–,–,–,–
O=c1[nH]c(CCCN2CC=C(c3cccc(F)c3)CC2)nc2ccccc12,23,–,–,–,–,–
N#Cc1ccc(C2=CCN(CCCc3nc(O)c4ccccc4n3)CC2)cc1,6,5200,20000,540,4500,–
Oc1nc(CCCN2CC=C(c3ccccc3)CC2)nc2ccc(Cl)cc12,27,15500,16200,14200,18600,–
O=c1[nH]c(CCCN2CC=C(c3ccccc3)CC2)nc2c(Cl)cc(Cl)cc12,39,–,–,–,–,–
Oc1nc(CCCN2CCC3=C(CCc4ccccc43)C2)nc2ccccc12,12,–,–,–,–,–
Oc1nc(CCCN2CC=C(c3ccccc3)CC2)nc2cc(Cl)ccc12,250,510,80,2660,6120,–
O=c1[nH]c(CCCN2CC=C(c3ccccc3)CC2)nc2cccc(Cl)c12,65,2170,4180,2820,4600,concentration at 0.5 h [6]: 1200 ng/mL; concentration at 0.5 h [7]: 7000 ng/g; Kp [8]: 5.8
Cc1ccc(C2=CCN(CCCc3nc(O)c4ccccc4n3)CC2)cc1,17,840,5400,2340,5310,–
CCc1cccc2c(O)nc(CCCN3CC=C(c4ccccc4)CC3)nc12,66,–,–,–,–,–
COc1ccccc1C1=CCN(CCCc2nc(O)c3ccccc3n2)CC1,170,–,–,–,–,–
Oc1nc(CCCN2CC=C(c3ccc(-[n+]4ccccc4)cc3)CC2)nc2ccccc12,12,620,14100,300,2760,–
O=c1[nH]c(CCCC2CC=C(c3ccccc3)CC2)nc2ccccc12 (stereo not given),> 1000,–,–,–,–,–
Cc1cccc2c(=O)[nH]c(CCCN3CC=C(c4ccccc4)CC3)nc12,14,400,940,730,2540,–
Oc1nc(CCCN2CCN(c3ccccc3)CC2)nc2ccccc12,–,530,2270,300,2850,–
O=c1[nH]c(CCCN2CCC(c3ccccc3)CC2)nc2ccccc12,46,–,250,100,370,–
O=c1[nH]c(CCCN2CC=C(c3ccc(F)cc3)CC2)nc2ccccc12,8.9,3480,6830,1160,3540,–
O=c1[nH]c(CCCN2CC=C(c3ccc(Cl)cc3)CC2)nc2ccccc12,23,2780,12100,9410,23900,–
O=c1[nH]c(CCCN2CC=C(c3ccccc3)CC2)nc2c(Cl)cccc12,26,1200,1280,8430,7990,–
O=c1[nH]c(CCCN2CC=C(c3ccc(F)cc3)CC2)nc2c(Cl)cccc12,13,500,1000,2100,5600,Cmax [9]: 300 ng/mL; clearance [10]: 13.5 mL/min/kg; clearance [11]: 4.8 mL/min/kg; CLint scaled [12]: 141 mL/min/kg; CLint scaled [13]: 1240 mL/min/kg; bioavailability [14]: 20%; bioavailability [15]: 70%; Cmax [16]: 1330 ng/mL; Cmax [17]: 280 ng/mL; half-life [18]: 1.4 h; half-life [19]: 6 h; CLint scaled [20]: 156 mL/min/kg; CLint scaled [21]: 2250 mL/min/kg; AUC [22]: 2.52 µg/h/mL; AUC [23]: 3.16 µg/h/mL; Kp [8]: 5.6; Ratio ([8]; plasma): 4.2
COc1cccc2c(=O)[nH]c(CCCN3CC=C(c4ccccc4)CC3)nc12,26,–,240,–,1150,–
O=c1[nH]c(CCCN2CC=C(c3ccc(C(F)(F)F)cc3)CC2)nc2ccccc12,25,3270,6800,19500,23400,–
O=c1[nH]c(=O)n(CCCCN2CC=C(c3ccccc3)CC2)c2cccc(F)c12,–,–,–,–,–,concentration at 0.5 h [6]: 700 ng/mL; concentration at 0.5 h [7]: 600 ng/g; Kp [8]: 0.86
Oc1nc(CCCN2CC=C(c3ccc(-c4ccccc4)cc3)CC2)nc2ccccc12,34,–,–,–,–,–
Cc1nc2cccc(Cl)c2c(=O)[nH]1,–,–,–,–,–,concentration at 0.5 h [6]: 6700 ng/mL; concentration at 0.5 h [7]: 5500 ng/g; Kp [8]: 0.82
O=c1[nH]c(CCCN2CC=C(c3ccc(O)cc3)CC2)nc2ccccc12,12,–,–,–,–,–
Oc1nc(CCCN2CCc3c([nH]c4ccccc34)C2)nc2ccccc12,74,9510,77200,150,580,–
COc1ccc(C2=CCN(CCCc3nc(O)c4ccccc4n3)CC2)cc1,8.3,1670,6050,3750,5610,–
Oc1nc(CCCN2CC=C(c3ccccc3)CC2)nc2cccc(F)c12,–,140,370,220,1620,–
O=c1[nH]c(CCCN2CC=C(c3ccccc3)CC2)nc2ccccc12,16,150,680,370,1900,–
